# Test results from ChEMBL document CHEMBL1201862, “PubChem BioAssay data set” (2004).
#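 Assay format: 96-well plates, 48-hour exposure. GI50 is the concentration that inhibits growth by half.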 Calls of active or inactive are those of the source. No stated cut-off is given here; in the data, active = GI50 up to about 1.1 µM and inactive = higher.
# What was measured:
# Experiment in all cases: NCI-60 cell line screen, 48 h
# 786-0 = tested on: 786-0
# A498 = tested on: A498
# A549 = tested on: A549
# ACHN = tested on: ACHN
# CAKI-1 = tested on: CAKI-1
# CCRF-CEM = tested on: CCRF-CEM
# COLO 205 = tested on: COLO 205
# DLD-1 = tested on: DLD-1
# DMS-114 = tested on: DMS-114
# DMS-273 = tested on: DMS-273
# EKVX = tested on: EKVX
# HCC 2998 = tested on: HCC 2998
# HCT-116 = tested on: HCT-116
# HCT-15 = tested on: HCT-15
# HL-60 = tested on: HL-60
# HOP-18 = tested on: HOP-18
# HOP-62 = tested on: HOP-62
# HOP-92 = tested on: HOP-92
# HT-29 = tested on: HT-29
# IGROV-1 = tested on: IGROV-1
# K562 = tested on: K562
# KM-20L2 = tested on: KM-20L2
# KM12 = tested on: KM12
# LOX IMVI = tested on: LOX IMVI
# LXFL 529 = tested on: LXFL 529
# M14 = tested on: M14
# M19-MEL = tested on: M19-MEL
# MOLT-4 = tested on: MOLT-4
# Malme-3M = tested on: Malme-3M
# NCI-H226 = tested on: NCI-H226
# NCI-H23 = tested on: NCI-H23
# NCI-H460 = tested on: NCI-H460
# NCI-H522 = tested on: NCI-H522
# OVCAR-3 = tested on: OVCAR-3
# OVCAR-4 = tested on: OVCAR-4
# OVCAR-5 = tested on: OVCAR-5
# OVCAR-8 = tested on: OVCAR-8
# RPMI-8226 = tested on: RPMI-8226
# RXF 393 = tested on: RXF 393
# SF-268 = tested on: SF-268
# SF-295 = tested on: SF-295
# SF-539 = tested on: SF-539
# SK-MEL-28 = tested on: SK-MEL-28
# SK-MEL-2 = tested on: SK-MEL-2
# SK-MEL-5 = tested on: SK-MEL-5
# SK-OV-3 = tested on: SK-OV-3
# SN12C = tested on: SN12C
# SNB-19 = tested on: SNB-19
# SNB-75 = tested on: SNB-75
# SR = tested on: SR
# SW-620 = tested on: SW-620
# TK-10 = tested on: TK-10
# U-251 = tested on: U-251
# UACC-257 = tested on: UACC-257
# UACC-62 = tested on: UACC-62
# UO-31 = tested on: UO-31
# XF498 = tested on: XF498
# SNB-78 = tested on: SNB-78
compound,measurement,setting,value
O=C(CC(=O)n1nc(-c2ccccc2)c(/N=N/c2ccccc2Cl)c1-c1ccccc1)Nc1ccc(Cl)cc1,GI50,786-0,> 52.7 µM (inactive)
same,GI50,A498,> 100 µM (inactive)
same,GI50,A549,> 54.1 µM (inactive)
same,GI50,ACHN,> 100 µM (inactive)
same,GI50,CAKI-1,> 100 µM (inactive)
same,GI50,CCRF-CEM,> 44.9 µM (inactive)
same,GI50,COLO 205,> 44.5 µM (inactive)
same,GI50,DLD-1,> 43.6 µM (inactive)
same,GI50,DMS-114,> 41.7 µM (inactive)
same,GI50,DMS-273,> 64.3 µM (inactive)
same,GI50,EKVX,> 100 µM (inactive)
same,GI50,HCC 2998,> 100 µM (inactive)
same,GI50,HCT-116,> 41.3 µM (inactive)
same,GI50,HCT-15,> 43 µM
same,GI50,HL-60,> 42.8 µM (inactive)
same,GI50,HOP-18,> 100 µM (inactive)
same,GI50,HOP-62,> 100 µM (inactive)
same,GI50,HOP-92,> 100 µM (inactive)
same,GI50,HT-29,> 54.6 µM (inactive)
same,GI50,IGROV-1,> 100 µM (inactive)
same,GI50,K562,> 53.1 µM (inactive)
same,GI50,KM-20L2,> 57.3 µM (inactive)
same,GI50,KM12,> 100 µM (inactive)
same,GI50,LOX IMVI,> 44.4 µM (inactive)
same,GI50,LXFL 529,> 100 µM (inactive)
same,GI50,M14,> 100 µM (inactive)
same,GI50,M19-MEL,21.7 µM (inactive)
same,GI50,MOLT-4,> 100 µM (inactive)
same,GI50,Malme-3M,> 100 µM (inactive)
same,GI50,NCI-H226,> 100 µM (inactive)
same,GI50,NCI-H23,> 100 µM (inactive)
same,GI50,NCI-H460,> 48.1 µM (inactive)
same,GI50,NCI-H522,> 100 µM (inactive)
same,GI50,OVCAR-3,> 100 µM (inactive)
same,GI50,OVCAR-4,> 100 µM (inactive)
same,GI50,OVCAR-5,> 100 µM (inactive)
same,GI50,OVCAR-8,> 100 µM (inactive)
same,GI50,RPMI-8226,> 49.3 µM (inactive)
same,GI50,RXF 393,> 100 µM (inactive)
same,GI50,SF-268,> 100 µM (inactive)
same,GI50,SF-295,> 100 µM (inactive)
same,GI50,SF-539,> 100 µM (inactive)
same,GI50,SK-MEL-28,> 100 µM (inactive)
same,GI50,SK-MEL-2,> 100 µM (inactive)
same,GI50,SK-MEL-5,> 100 µM (inactive)
same,GI50,SK-OV-3,> 100 µM (inactive)
same,GI50,SN12C,> 100 µM (inactive)
same,GI50,SNB-19,> 100 µM (inactive)
same,GI50,SNB-75,> 100 µM (inactive)
same,GI50,SR,> 100 µM (inactive)
same,GI50,SW-620,> 48.6 µM (inactive)
same,GI50,TK-10,> 96.2 µM (inactive)
same,GI50,U-251,> 38.6 µM (inactive)
same,GI50,UACC-257,> 83.2 µM (inactive)
same,GI50,UACC-62,> 100 µM (inactive)
same,GI50,UO-31,> 100 µM (inactive)
same,GI50,XF498,> 100 µM (inactive)
Nc1nc(O)c([N+](=O)[O-])c(NCCOCP(=O)(O)O)n1,GI50,786-0,> 100 µM (inactive)
same,GI50,A549,> 100 µM (inactive)
same,GI50,ACHN,> 100 µM (inactive)
same,GI50,CCRF-CEM,> 100 µM (inactive)
same,GI50,COLO 205,> 100 µM (inactive)
same,GI50,DLD-1,> 100 µM (inactive)
same,GI50,DMS-273,> 100 µM (inactive)
same,GI50,EKVX,> 100 µM (inactive)
same,GI50,HCC 2998,> 100 µM (inactive)
same,GI50,HCT-116,> 100 µM (inactive)
same,GI50,HL-60,> 100 µM (inactive)
same,GI50,HOP-18,> 100 µM (inactive)
same,GI50,HOP-62,> 100 µM (inactive)
same,GI50,HOP-92,> 100 µM (inactive)
same,GI50,HT-29,> 100 µM (inactive)
same,GI50,IGROV-1,> 100 µM (inactive)
same,GI50,K562,> 100 µM (inactive)
same,GI50,KM-20L2,> 100 µM (inactive)
same,GI50,KM12,> 100 µM (inactive)
same,GI50,LOX IMVI,> 100 µM (inactive)
same,GI50,LXFL 529,> 100 µM (inactive)
same,GI50,M14,> 100 µM (inactive)
same,GI50,M19-MEL,> 100 µM (inactive)
same,GI50,MOLT-4,> 100 µM (inactive)
same,GI50,Malme-3M,> 100 µM (inactive)
same,GI50,NCI-H226,> 100 µM (inactive)
same,GI50,NCI-H23,> 100 µM (inactive)
same,GI50,NCI-H460,> 100 µM (inactive)
same,GI50,NCI-H522,> 100 µM (inactive)
same,GI50,OVCAR-3,> 100 µM (inactive)
same,GI50,OVCAR-8,> 100 µM (inactive)
same,GI50,RPMI-8226,> 100 µM (inactive)
same,GI50,RXF 393,> 100 µM (inactive)
same,GI50,SF-268,> 100 µM (inactive)
same,GI50,SF-295,> 100 µM (inactive)
same,GI50,SF-539,> 100 µM (inactive)
same,GI50,SK-MEL-28,> 100 µM (inactive)
same,GI50,SK-MEL-2,> 100 µM (inactive)
same,GI50,SK-OV-3,> 100 µM (inactive)
same,GI50,SN12C,> 100 µM (inactive)
same,GI50,SNB-19,> 100 µM (inactive)
same,GI50,SNB-75,> 100 µM (inactive)
same,GI50,SNB-78,> 100 µM (inactive)
same,GI50,SR,> 100 µM (inactive)
same,GI50,SW-620,> 100 µM (inactive)
same,GI50,TK-10,> 100 µM (inactive)
same,GI50,U-251,> 100 µM (inactive)
same,GI50,UACC-257,> 100 µM (inactive)
same,GI50,UACC-62,> 100 µM (inactive)
same,GI50,UO-31,> 100 µM (inactive)
same,GI50,XF498,> 100 µM (inactive)
